Laboratory results from US20050267071A1, “Inhibitors of coronavirus protease and methods of use thereof” (Fulcrum Pharmaceuticals, Inc., priority 2003, published 2005).

What follows are molecules tested against T1, SARS-associated coronavirus protease 3CL^pro (Severe acute respiratory syndrome coronavirus, UniProt P0C6U8) (assay: biochemical).
For `O=C(Oc1ccc(OC(=O)c2cc(B(O)O)cc([N+](=O)[O-])c2)cc1)c1cc(B(O)O)cc([N+](=O)[O-])c1` [FL-078, 3-Borono-5-nitrobenzoic acid 1,4-phenylene ester], the Ki was 6.7 ± 0.9 µM. Molecule `O=C(Oc1ccc(OC(=O)c2cc(B(O)O)cc([N+](=O)[O-])c2)c(Cl)c1)c1cc(B(O)O)cc([N+](=O)[O-])c1` [FL-079, 3-Borono-5-nitrobenzoic acid 2-chloro-1,4-phenylene ester] has a Ki of 23.7 ± 3 µM. `O=C(Oc1c(Cl)cccc1Cl)c1cc(B(O)O)cc([N+](=O)[O-])c1` [FL-080, 3-(2,6-Dichlorophenoxycarbonyl)-5-nitrophenylboronic acid] showed a Ki of 62 ± 6 µM. For `O=C(Oc1ccccc1F)c1cc(B(O)O)cc([N+](=O)[O-])c1` [FL-081, 3-(2-Fluorophenoxycarbonyl)-5-nitrophenylboronic acid], the Ki was 179 ± 70 µM. In the case of `O=C(Oc1c(F)cccc1F)c1cc(B(O)O)cc([N+](=O)[O-])c1` [FL-082, 3-(2,6-Difluorophenoxycarbonyl)-5-nitrophenylboronic acid], the Ki is reported as 158 ± 109 µM. `O=C(O)c1cc(NC(=O)c2ccccc2F)cc(B(O)O)c1` [FL-083, 3-(2-Fluorobenzamido)-5-carboxylphenylboronic acid] gave a Ki of 104 ± 38 µM. With `O=C(Nc1cc(B(O)O)cc([N+](=O)[O-])c1)c1ccccc1F` [FL-084, 3-(2-Fluorobenzamido)-5-nitrophenylboronic acid] the Ki was > 1000 µM. With `O=C(Oc1ccc(F)cc1)c1cc(B(O)O)cc([N+](=O)[O-])c1` [FL-085, 3-(4-Fluorophenoxycarbonyl)-5-nitrophenylboronic acid] the Ki was 95 ± 30 µM. In the case of `O=C(OCc1c(Cl)cccc1Cl)c1cc(B(O)O)cc([N+](=O)[O-])c1` [FL-086], the Ki is reported as > 1000 µM. In the case of `O=C(Oc1ccncc1)c1cc(B(O)O)cc([N+](=O)[O-])c1` [FL-087, 3-(4-pyridyloxycarbonyl)-5-nitro-phenylboronic acid], the Ki is reported as 66 ± 2 µM. For `Nc1cc(B(O)O)cc(C(=O)O)c1` [FL-088, 3-amino-5-carboxylphenylboronic acid], the Ki was 63 ± 14 µM. For `O=C(Oc1cccnc1Cl)c1cc(B(O)O)cc([N+](=O)[O-])c1` [FL-089, 3-(2-Chloro-3-pyridyloxycarbonyl)-5-nitrophenylboronic acid], the Ki was 241 ± 85 µM. `O=C(OC1c2ccccc2CC1Br)c1cc(B(O)O)cc([N+](=O)[O-])c1` (stereo not shown) [FL-090, 3-(2-Bromo-1-indanoxycarbonyl)-5-nitrophenylboronic acid] was tested, and the Ki was > 1000 µM. With `O=C(Oc1ccccc1)c1cc(B(O)O)cc([N+](=O)[O-])c1` [FL-092, 3-Phenoxycarbonyl-5-nitrophenylboronic acid] the Ki was 15.5 ± 6.5 µM. For `O=C(OCc1cccc([N+](=O)[O-])c1)c1cc(B(O)O)cc([N+](=O)[O-])c1` [FL-094, 3-(3-Nitrobenzyloxycarbonyl)-5-nitrophenylboronic acid], the Ki was 39 ± 5 µM. `O=C(OCc1cccc(Cl)c1)c1cc(B(O)O)cc([N+](=O)[O-])c1` [FL-095, 3-(3-Chlorobenzyloxycarbonyl)-5-nitrophenylboronic acid] showed a Ki of 91.8 ± 8.8 µM. `O=C(Oc1ccccc1Br)c1cc(B(O)O)cc([N+](=O)[O-])c1` [FL-096, 3-(2-Bromophenoxycarbonyl)-5-nitro-phenylboronic acid] gave a Ki of 137 ± 61 µM. `O=C(OC(C(=O)c1ccccc1)c1ccccc1)c1cc(B(O)O)cc([N+](=O)[O-])c1` (stereo not shown) [FL-097, 3-(1-Benzoyl-1-Phenylmethoxycarbonyl)-5-nitrophenylboronic acid] showed a Ki of 153 ± 58 µM. For `O=C(Oc1cccc(B(O)O)c1)c1c(Cl)cccc1Cl` [FL-099, 3-(2,6-dichlorophenylcarbonyloxy)phenyl boronic acid], the Ki was > 1000 µM. `O=C(Oc1cccc(B(O)O)c1)c1cc(B(O)O)cc([N+](=O)[O-])c1` [FL-100, 3-(3-Boronophenoxycarbonyl)-5-nitrophenylboronic acid] was tested, and the Ki was 190 ± 100 µM. `O=C(OCc1cccc(B(O)O)c1)c1cc(B(O)O)cc([N+](=O)[O-])c1` [FL-101, 3-(3-Boronobenzyloxycarbonyl)-5-nitrophenylboronic acid] gave a Ki of 21.7 ± 3.27 µM. `O=C(Oc1ccc(OC(=O)c2ccc(B(O)O)cc2F)c(Cl)c1)c1ccc(B(O)O)cc1F` [FL-103, 4-Borono-2-fluorobenzoic acid 2-chloro-1,4-phenylene ester] was tested, and the Ki was 39.1 ± 2.1 µM. `O=C(Oc1c(Cl)cccc1[N+](=O)[O-])c1ccc(B(O)O)cc1F` [FL-104, 4-(2-Chloro-6-nitrophenoxycarbonyl)-3-fluorophenylboronic acid] showed a Ki of 18 ± 1 µM. Work on `O=C(Oc1cccc(OC(=O)c2cc(B(O)O)cc([N+](=O)[O-])c2)c1)c1cc(B(O)O)cc([N+](=O)[O-])c1` [FL-106, 3-Borono-5-nitrobenzoic acid 1,3-phenylene ester] yielded a Ki of 8.5 ± 0.5 µM. With `O=C(Oc1c(Cl)cc(Cl)cc1[N+](=O)[O-])c1cc(B(O)O)cc([N+](=O)[O-])c1` [FL-107, 3-(2,4-Dichloro-6-nitro-phenoxycarbonyl)-5-nitro-phenylboronic acid] the Ki was 6.9 ± 0.3 µM. `O=C(Nc1cc(B(O)O)cc([N+](=O)[O-])c1)c1c(Cl)cccc1Cl` [FL-108, 3-(2,6-Dichlorobenzamido)-5-nitrophenylboronic acid] was tested, and the Ki was 15 ± 7 µM. Molecule `O=C(Nc1cc(B(O)O)ccc1Cl)c1c(Cl)cccc1Cl` [FL-109, 3-(2,6-Dichlorobenzamido)-4-chlorophenylboronic acid] has a Ki of 61.5 ± 19.7 µM. In the case of `Cc1ccc(B(O)O)cc1NC(=O)c1c(Cl)cccc1Cl` [FL-110, 3-(2,6-Dichlorobenzamido)-4-methylphenylboronic acid], the Ki is reported as 37 ± 9.7 µM. Work on `O=[N+]([O-])c1cc(NS(=O)(=O)c2ccccc2)cc(B(O)O)c1` [FL-114, 3-benzenesulfonamido-5-nitrophenylboronic acid] yielded a Ki of 49.8 ± 4.4 µM. In the case of `O=C(Oc1cc(=O)oc2ccccc12)c1cc(B(O)O)cc([N+](=O)[O-])c1` [FL-133, 3-(4-Coumarinoxycarbonyl)-5-nitrophenylboronic acid], the Ki is reported as > 1000 µM. For `O=C(OCc1ccccc1COC(=O)c1cc(B(O)O)cc([N+](=O)[O-])c1)c1cc(B(O)O)cc([N+](=O)[O-])c1` [FL-136, 3-Borono-5-nitrobenzoic acid 1,2-benzenedimethanol ester], the Ki was 8 ± 1.7 µM. `O=C(Oc1c(Cl)cc(Cl)cc1Cl)c1cc(B(O)O)cc([N+](=O)[O-])c1` [FL-139, 3-(2,4,6-Trichlorophenoxycarbonyl)-5-nitro-phenylboronic acid] gave a Ki of 73.3 ± 38 µM. Work on `O=C(Oc1c(Cl)c(Cl)c(OC(=O)c2cc(B(O)O)cc([N+](=O)[O-])c2)c(Cl)c1Cl)c1cc(B(O)O)cc([N+](=O)[O-])c1` [FL-141, 3-Borono-5-nitrobenzoic acid 2,3,5,6-tetrachloro-1,4-phenylene ester] yielded a Ki of 39.3 ± 11.7 µM. In the case of `O=C(OCc1cccc2ccccc12)c1cc(B(O)O)cc([N+](=O)[O-])c1` [FL-148, 3-(1-Naphthalenemethoxycarbonyl)-5-nitrophenylboronic acid], the Ki is reported as 21.5 ± 8.7 µM. In the case of `O=C(OC(c1ccccc1)c1ccccc1)c1cc(B(O)O)cc([N+](=O)[O-])c1` [FL-149, 3-(1,1-Diphenylmethoxycarbonyl)-5-nitrophenylboronic acid], the Ki is reported as 313 ± 170 µM. For `O=C(Oc1ccc2ccccc2c1)c1cc(B(O)O)cc([N+](=O)[O-])c1` [FL-151, 3-(2-Naphthoxycarbonyl)-5-nitrophenylboronic acid], the Ki was 16.6 ± 6 µM. Molecule `O=C(Oc1cccc(B(O)O)c1)c1ccc(C(=O)Oc2cccc(B(O)O)c2)cc1` [FL-156, 1,4-Benzenedicarboxylic acid, di 3-boronophenyl ester] has a Ki of 33 ± 9.4 µM. `O=C(Oc1cc(OC(=O)c2cc(B(O)O)cc([N+](=O)[O-])c2)cc(OC(=O)c2cc(B(O)O)cc([N+](=O)[O-])c2)c1)c1cc(B(O)O)cc([N+](=O)[O-])c1` [FL-164, Tris-(3-borono-5-nitrobenzoic acid), 1,3,5-trihydroxybenzene ester] showed a Ki of 79.6 ± 14.1 µM. With `O=C(OCCN(CCOC(=O)c1cc(B(O)O)cc([N+](=O)[O-])c1)CCOC(=O)c1cc(B(O)O)cc([N+](=O)[O-])c1)c1cc(B(O)O)cc([N+](=O)[O-])c1` [FL-165, Tris(3-borono-5-nitrobenzoic acid), triethanolamine ester] the Ki was 50.6 ± 21.5 µM. `O=C(Oc1ccc(OC(=O)c2cc(B(O)O)cc([N+](=O)[O-])c2)c2ccccc12)c1cc(B(O)O)cc([N+](=O)[O-])c1` [FL-167, 3-Borono-5-nitrobenzoic acid, 1,4-dihydroxynaphthalene ester] gave a Ki of 10.2 ± 2.2 µM. With `CC(C)(C)c1cc(OC(=O)c2cc(B(O)O)cc([N+](=O)[O-])c2)ccc1OC(=O)c1cc(B(O)O)cc([N+](=O)[O-])c1` [FL-169, 3-Borono-5-nitrobenzoic acid, 2-tert-butyl-1,4-phenylene ester] the Ki was 32.7 ± 2.5 µM. `CCOC(=O)[C@H](Cc1ccccc1)NC(=O)c1cc(B(O)O)cc([N+](=O)[O-])c1` [FL-170, 3-borono-5-nitrobenzoyl-L-phenylalanine ethyl ester] showed a Ki of 10.6 ± 7.5 µM. `O=C(O)c1cc(O)cc(B(O)O)c1` [FL-172, (3-carboxy-5-hydroxyphenyl)boronic acid] gave a Ki of 3.5 ± 3.9 µM. Molecule `O=C(NCc1ccccc1)c1cccc(B(O)O)c1` [FL-1010, 3-(Benzylcarbamoyl)phenylboronic acid] has a Ki of 84 ± 45 µM. For `O=C(OCc1ccccc1)c1cc(B(O)O)cc([N+](=O)[O-])c1` [FL-1201, 3-Benzyloxycarbonyl-5-nitrophenylboronic acid], the Ki was 35.8 ± 11.5 µM.

Each molecule was assayed against T1, SARS-associated coronavirus protease 3CL^pro (assay: not given).
Format: binding
In the case of `O=C(Oc1ccc(OC(=O)c2cc(B(O)O)cc([N+](=O)[O-])c2)cc1)c1cc(B(O)O)cc([N+](=O)[O-])c1` [FL-078, 3-Borono-5-nitrobenzoic acid 1,4-phenylene ester], the “ΔH (Binding Enthalpy of Selected Compounds to 3CL^pro)” value is reported as -4900 cal/mol. For `O=C(Oc1ccc(OC(=O)c2cc(B(O)O)cc([N+](=O)[O-])c2)c(Cl)c1)c1cc(B(O)O)cc([N+](=O)[O-])c1` [FL-079, 3-Borono-5-nitrobenzoic acid 2-chloro-1,4-phenylene ester], the “ΔH (Binding Enthalpy of Selected Compounds to 3CL^pro)” value was -1700 cal/mol. With `O=C(Oc1cccc(OC(=O)c2cc(B(O)O)cc([N+](=O)[O-])c2)c1)c1cc(B(O)O)cc([N+](=O)[O-])c1` [FL-106, 3-Borono-5-nitrobenzoic acid 1,3-phenylene ester] the “ΔH (Binding Enthalpy of Selected Compounds to 3CL^pro)” value was -5300 cal/mol. In the case of `O=C(OCc1ccccc1COC(=O)c1cc(B(O)O)cc([N+](=O)[O-])c1)c1cc(B(O)O)cc([N+](=O)[O-])c1` [FL-136, 3-Borono-5-nitrobenzoic acid 1,2-benzenedimethanol ester], the “ΔH (Binding Enthalpy of Selected Compounds to 3CL^pro)” value is reported as -9200 cal/mol.
